Where two headings read alike, the source gives them in different places.
Tests used:
Type in all cases: cell-based, Trichoderma reesei
[1] = tested on: T. reesei strain RLP37 NikM743T; assay: Liquid medium fungicide screen, conidiospore germination in YEG; conditions: all concentrations tested (11.25, 22.5, 45 or 90 μM), overnight at 28° C.
Experimental: (§1) For use in liquid medium fungicide screens, conidiospores from T. reesei strains RLP37 and RLP37 NikM743T were harvested and diluted to a concentration of 10,000/ml. Equal numbers of spores were inoculated into liquid YEG medium (5 g/L yeast extract, 22 g/1 glucose. H2O) containing 0, 11.25, 22.5, 45 or 90 μM iprodione or fludioxonil and allowed to germinate overnight at 28° C. […] Furthermore, sensitivity of RLP37 and resistance of RLP37 NikM743T persisted when inoculation culture was scaled up to […].

T. reesei strain RLP37 [2] = assay: as above; conditions: for germination and hyphal growth of conidiospores: 11.25 μM fungicide, overnight at 28° C., 10,000 spores/ml
Experimental: as §1

T. reesei strain RLP37 [3] = assay: Agar (solid) medium fungicide screen, colony growth on Vogel's minimal medium with glucose; conditions: agar plates, 3 days at 32° C.
Experimental: (§2) For use in agar (solid) medium fungicide screens or selections, conidiospores from T. reesei strains RLP37 and RLP37 Nik^M743T were harvested and diluted to a concentration such that a known number of spores were plated per 10 cm plate containing nutrient agar Vogel's minimal medium with glucose (Vogel, Microbial Genet. Bull. 13:42-43 (1956); Vogel, Am. Nat. 98:435-446 (1964)). Equal numbers of spores for each strain were spread onto the surface of nutrient agar plates containing 0, 11.25, 22.5, 45 or 90 μM iprodione and allowed to grow for 3 days at 32° C. […] This mixed population of spores was spread onto Vogel's minimal medium agar containing 45 μM iprodione and allowed to grow for 3 days at 32° C. Colonies were counted and evaluated for presence of the nik1^M743T mutation by PCR and sequencing (Sequetech, Mountain View, Calif., USA), using the following primers: […]

[4] = tested on: T. reesei strain RLP37 Nik^M743T; assay: as above; conditions: 11.25, 22.5, 45 or 90 μM, agar plates, 3 days at 32° C.
Experimental: as §2

Row | SMILES | germination and hyphal growth of conidiospores [1] | germination and hyphal growth of conidiospores (T. reesei strain RLP37 [2]; liquid YEG medium) | germination and growth of conidiospores (T. reesei strain RLP37 [2]; concentrations above 11.25 μM (22.5, 45 or 90 μM), liquid YEG medium, overnight at 28° C.) | colony growth (T. reesei strain RLP37 [3]; 45 μM and above) | colony growth (T. reesei strain RLP37 [3]; 11.25 and 22.5 μM) | colony growth [4] | germination and growth of conidiospores (T. reesei strain RLP37 [2])
1 | N#Cc1c[nH]cc1-c1cccc2c1OC(F)(F)O2 [fludioxonil] | germinated and produced elongated hyphae | clear inhibition of hyphal growth | complete inhibition of germination and growth |  |  |  | 
2 | CC(C)NC(=O)N1CC(=O)N(c2cc(Cl)cc(Cl)c2)C1=O [iprodione] | germinated and produced elongated hyphae | clear inhibition of hyphal growth |  | failed to grow at all | failed to grow to any larger than the size of the tip of a pin | grew similarly to colonies growing on nutrient agar plates without iprodione | complete inhibition of germination and growth
